Assay results reported in the supplement of paper PMC10307832.

What was measured:
Assay in all cases: relative viability (nuclei count vs DMSO), 5 days (fraction); higher = more cells survive
CUDC-101 + Bortezomib = compound: C#Cc1cccc(Nc2ncnc3cc(OC)c(OCCCCCCC(=O)NO)cc23)c1 [CUDC-101] + CC(C)C[C@H](NC(=O)[C@H](Cc1ccccc1)NC(=O)c1cnccn1)B(O)O [Bortezomib] (partner 0.002 µM)
Outline: (§1)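 Relative viability was taken as the ratio of nuclei in treated wells to nuclei in vehicle wells. Lung cancer cell lines in 1536-well plates received compounds by pin tool one day after seeding, either one drug alone or a fixed anchor-drug dose plus five library-drug doses (not always all listed) in √10 steps. Nuclei were counted on 4× images after 5 days of treatment, and values are medians of duplicate plates.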

[1] = compound: C1=CC=C2C(=C1)N=C(S2)C(C#N)C3=NC(=NC=C3)NCCC4=CN=CC=C4 + CC(=O)Nc1cccc(-n2c(=O)n(C3CC3)c(=O)c3c(Nc4ccc(I)cc4F)n(C)c(=O)c(C)c32)c1 [Trametinib] (partner 0.02 µM)
Outline: as §1

[2] = compound: C1=CC=C2C(=C1)N=C(S2)C(C#N)C3=NC(=NC=C3)NCCC4=CN=CC=C4 + CS(=O)(=O)N1CCN(Cc2cc3nc(-c4cccc5[nH]ncc45)nc(N4CCOCC4)c3s2)CC1 [Pictilisib] (partner 1 µM)
Outline: as §1

[3] = compound: C1=CC=C2C(=C1)N=C(S2)C(C#N)C3=NC(=NC=C3)NCCC4=CN=CC=C4 + O=C(CCCCCCC(=O)Nc1ccccc1)NO [Vorinostat] (partner 1 µM)
Outline: as §1

UMC-11 showed a relative viability (CUDC-101 + Bortezomib; first compound 0.01 µM) of 0.918, a relative viability (CUDC-101 + Bortezomib; first compound 0.03162 µM) of 0.831 and a relative viability (CUDC-101 + Bortezomib; first compound 0.1 µM) of 0.468. The relative viability (CUDC-101 + Bortezomib; first compound 0.3162 µM) was 0.576, the relative viability (CUDC-101 + Bortezomib; first compound 1 µM) was 0.167 and the relative viability ([1]; first compound 0.01581 µM) was 0.741. For the same cell line, the relative viability ([1]; first compound 0.05 µM) was 0.664, the relative viability ([1]; first compound 0.1581 µM) was 0.839 and the relative viability ([1]; first compound 0.5 µM) was 0.831. For the same cell line, the relative viability ([2]; first compound 0.005 µM) was 0.717, the relative viability ([2]; first compound 0.01581 µM) was 0.748 and the relative viability ([2]; first compound 0.05 µM) was 0.689. For the same cell line, the relative viability ([2]; first compound 0.1581 µM) was 0.877, the relative viability ([2]; first compound 0.5 µM) was 0.777 and the relative viability ([3]; first compound 0.01581 µM) was 0.36. For the same cell line, the relative viability ([3]; first compound 0.05 µM) was 0.402, the relative viability ([3]; first compound 0.1581 µM) was 0.42 and the relative viability ([3]; first compound 0.5 µM) was 0.422.
